Data on one compound can be found in patent publication US10207985B2, “Compounds” (SYNGENTA PARTICIPATIONS AG, priority 2013, dated 2019).

By melting point is commonly meant the temperature of the solid-liquid transition. `Cc1ccsc1C1CC[C@H]1NC(=O)c1ccccc1C(F)(F)F` (stereo partly shown) [Compound 116-4]: the melting point lay within 111 to 112 °C.
